The values below come from patent US20120053180A1, “CYCLOHEXANE ANALOGUES AS GPR119 AGONISTS” (CHEMIZON, A DIVISION OF OPTOMAGIC CO., LTD., priority 2010, published 2012).

This test has as its target T1, GPR119 (Homo sapiens, UniProt Q8TDV5).
T1 sequence (Q8TDV5 1-335): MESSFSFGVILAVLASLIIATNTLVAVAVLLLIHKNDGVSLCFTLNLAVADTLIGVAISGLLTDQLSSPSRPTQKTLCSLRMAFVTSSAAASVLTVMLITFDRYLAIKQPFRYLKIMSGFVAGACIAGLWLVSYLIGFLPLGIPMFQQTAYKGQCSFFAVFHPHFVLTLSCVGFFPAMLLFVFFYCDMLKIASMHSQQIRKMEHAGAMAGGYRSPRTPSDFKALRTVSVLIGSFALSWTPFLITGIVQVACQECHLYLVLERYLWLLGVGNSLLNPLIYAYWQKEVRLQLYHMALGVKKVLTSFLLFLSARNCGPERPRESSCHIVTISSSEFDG
Kind of test: cAMP assays of selected examples (stimulation of cAMP). In kind it is cell-based. From the text: Camp Assays of Selected Examples

What is called EC50 is the concentration needed to bring the measured effect to its halfway point. Lower therefore signals greater potency.

In the case of `CCc1cnc(OC2CCC(Oc3c(F)cc(-c4ccc(S(C)(=O)=O)cc4)cc3F)CC2)nc1` (centres unmarked), for the setting “<200 nM”, the concentration giving a half-maximal response (EC50) was less than 0.2 µM.
With `Cc1cnc(OC2CCC(n3cc(COc4ccc(S(C)(=O)=O)cc4)nn3)CC2)nc1` (centres unmarked), the EC50 ('>200 nM') was more than 0.2 µM.
Still for that read-out and setting: under `CCc1cnc(OC2CCC(n3cc(COc4ccc(S(C)(=O)=O)cc4)nn3)CC2)nc1` (centres unmarked) stands more than 0.2 µM; under `CS(=O)(=O)c1ccc(OCc2cn(C3CCC(Oc4ncccn4)CC3)nn2)cc1` (centres unmarked), more than 0.2 µM.
`CCc1cnc(OC2CCC(c3nc(CNc4ccc(S(C)(=O)=O)cc4)cs3)CC2)nc1` (centres unmarked): under “'>200 nM'”, the 50% effective concentration (EC50) is more than 0.2 µM.
In the case of `CCc1cnc(OC2CCC(c3nc(COc4ccc(S(C)(=O)=O)cc4F)cs3)CC2)nc1` (centres unmarked), the EC50 (<200 nM) is less than 0.2 µM.
Regarding `CCc1cnc(OC2CCC(c3nc(COc4ccc(S(C)(=O)=O)cc4)cs3)CC2)nc1` (centres unmarked), the EC50 (<200 nM) was less than 0.2 µM.
Still for that read-out and setting: to `CCc1cnc(OC2CCC(c3nc(COc4ccc(-n5cnnn5)cc4)cs3)CC2)nc1` (centres unmarked) belongs less than 0.2 µM.
